In paper PMC12865225 (Clinical and Translational Science, 2026):

Target: T1, OATP1B1 (Homo sapiens, UniProt Q9Y6L6)
T1 construct: expressed in transfected cells; host or cells: HEK293 (recombinant baculovirus-mediated transduction)
T1 sequence (Q9Y6L6 1-691): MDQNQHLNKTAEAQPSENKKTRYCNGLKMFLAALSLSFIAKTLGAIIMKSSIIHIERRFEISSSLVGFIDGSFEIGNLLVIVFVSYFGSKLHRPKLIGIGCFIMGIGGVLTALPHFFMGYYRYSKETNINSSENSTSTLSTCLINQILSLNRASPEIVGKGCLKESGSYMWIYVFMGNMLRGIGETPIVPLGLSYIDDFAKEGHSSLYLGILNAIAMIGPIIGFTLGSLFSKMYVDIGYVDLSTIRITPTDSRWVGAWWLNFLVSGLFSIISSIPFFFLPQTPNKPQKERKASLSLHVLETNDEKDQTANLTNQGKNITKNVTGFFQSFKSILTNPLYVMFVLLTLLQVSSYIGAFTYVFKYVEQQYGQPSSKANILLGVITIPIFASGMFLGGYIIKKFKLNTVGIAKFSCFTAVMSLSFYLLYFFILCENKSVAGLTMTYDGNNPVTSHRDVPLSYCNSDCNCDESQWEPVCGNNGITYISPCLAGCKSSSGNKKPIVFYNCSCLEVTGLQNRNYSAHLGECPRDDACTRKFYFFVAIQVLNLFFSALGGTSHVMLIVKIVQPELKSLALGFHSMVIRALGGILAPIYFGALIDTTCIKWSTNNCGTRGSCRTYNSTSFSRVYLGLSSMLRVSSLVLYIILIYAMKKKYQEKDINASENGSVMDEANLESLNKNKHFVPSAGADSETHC
Assay: OATP1B1 inhibition with fluorescent substrate 2′,7′-dichlorofluorescein in HEK293 cells
Format: cell-based
Settings: 1 µM 2′,7′-dichlorofluorescein, 30 min preincubation
Experimental: 8- (2- [Fluoresceinyl]aminoethylthio)adenosine- 3', 5'- cyclic monophosphate (8-Fluo-cAMP) was acquired from Biolog Life Science Institute (Bremen, Germany), 4′,5′-dibromofluorescein was acquired from Sigma-Aldrich (St. Louis, MO, USA) and 2′,7′-dichlorofluorescein was acquired from Santa Cruz Biotechnology (Dallas, TX, USA).
Inhibition studies with fluorescent substrates in OATP transduced HEK293 cells The concentrations of fluorescent probe substrates were 1 µM 2′,7′-dichlorofluorescein for OATP1B1, 2.5 µM 8-Fluo-cAMP for OATP1B3 and 1 µM 4′,5′-dibromofluorescein for OATP2B1, and these concentrations were selected to be within or below of previously reported […]
reported linear ranges of transport for these substrate-transporter combinations.1,2,4 8-Fluo-cAMP was dissolved in ultrapure water, while dimethyl sulfoxide (DMSO) was used for all other compounds. […] For the quantification of fluorescent substrates, cells were lysed with 120 µl of lysis solution (1% Triton X-100, 5 mM EDTA, 150 mM sodium chloride and 150 mM TRIC-hydrochloride and adjusted to pH 8 with sodium hydroxide) for 30 min at 300 RPM shaking before transferring 80 µl of samples to a transparent 96-well plate containing 20 µl of 0.5 M sodium hydroxide. […] The plates were measured with a fluorescent plate reader (Varioskan LUX from ThermoFisher Scientific). […]

IC50 at 5 min (human, HEK293 cells transduced to express OATP1B1, pH 7.4, probe 2′,7′-dichlorofluorescein 1 µM)	IC50 (5 min)	Structure (SMILES)
3.59 µM	–	Cc1onc(-c2c(Cl)cccc2Cl)c1C(=O)N[C@@H]1C(=O)N2[C@@H]1SC(C)(C)[C@@H]2C(=O)O [Dicloxacillin]
–	9.28 µM	Cc1onc(-c2c(F)cccc2Cl)c1C(=O)N[C@@H]1C(=O)N2[C@@H]1SC(C)(C)[C@@H]2C(=O)O [Flucloxacillin]
